Results on one molecule are retold here after patent US5626867A, “Liposomes with a negative excess charge” (Max-Planck Gesellschaft zur Forderung der Wissenschaften …, priority 1992, dated 1997).

Series [1] can be described thus: in vivo. The settings on record: mouse, iv, 5.7 mg/kg. Further details: species or system NMR-I mice. As to the method:
Each treatment group was composed of 3 animals. […] The plasma samples were analyzed by the procedure of Mross et al., (J. Chromatograph. 530 (1990), 192-199). […] The columns were dried for 10 minutes at 10 mbar. […] The residue was taken up in 50 μl (0.02 mol/l Na phosphate/acetonitrile, pH 3.9; 7:3, v/v) and analyzed by means of HPLC using a 4.6 mm×25 cm Merck Lichrocart C 18 RP 5 μm column. The flow rate was 1.5 ml/min. The excitation wavelength was 480 nm and the emission wavelength was 580 nm.

The nature of series [2]: in vivo. The settings on record: mouse, iv, 5.7 mg/kg. The protocol:
Female NMR-I mice (28-32 g, 6-8 weeks) were obtained from the Animal Breeding Institute, Hannover Germany. The same doses (5.7 mg/kg) were injected in each case into the cordal vein of the mice. Each treatment group was composed of 3 animals. After 1, 24 and 72 hours the mice were anaesthetized with CO2. Blood was collected from the mice by puncture of the heart and stored in heparinized Eppendorf vessels. Tissue samples from the mice (liver, heart etc.) were rinsed in 0.9% NaCl solution and stored at -70° C.
In order to detect doxorubicin and its metabolites in the individual organs, the tissue samples (about 200 mg in each case) were homogenized with a micro-dismembrator (Braun Melsungen AG, Germany). Doxorubicin and its metabolites were treated with an extraction solution at pH 3 (16.5% w/v AgNO3 in acetonitrile/water; 6:4, v/v), in order to release the anthracyclines from a complex with DNA and to precipitate the proteins. After addition of an internal standard (epirubicin) and centrifugation, the supernatant was applied directly to the HPLC column.

For series [3] the following is noted: clinical use; cited from earlier work.

`COc1cccc2c1C(=O)c1c(O)c3c(c(O)c1C2=O)C[C@@](O)(C(=O)CO)C[C@@H]3O[C@H]1C[C@H](N)[C@H](O)[C@H](C)O1` [free doxorubicin, doxorubicin]: the concentration at 1 h in “in vivo [1]” came out at 500 ng/mL. Moreover, in the series “in vivo [2]”, the amount remaining (commonly what is left of the initial amount, in per cent) at 1 h was 23%. For the same molecule, the cardiac toxicity result in series [3] was “high cardiac toxicity”.
